The source of these data is patent publication US9273057B2 (Bristol-Myers Squibb Company, priority 2012, dated 2016).

This experiment deals with CK2A1 (CK2α/β) (Homo sapiens, UniProt P68400). The experiment is described as follows: CK2 kinase assay, CK2A1 (CK2α/β). The class given is biochemical. The conditions noted are these: Table A; read-out: CK2A1 (CK2α/β) (IC50).
Chain of CK2A1 (CK2α/β) (P68400 whole entry, species assumed): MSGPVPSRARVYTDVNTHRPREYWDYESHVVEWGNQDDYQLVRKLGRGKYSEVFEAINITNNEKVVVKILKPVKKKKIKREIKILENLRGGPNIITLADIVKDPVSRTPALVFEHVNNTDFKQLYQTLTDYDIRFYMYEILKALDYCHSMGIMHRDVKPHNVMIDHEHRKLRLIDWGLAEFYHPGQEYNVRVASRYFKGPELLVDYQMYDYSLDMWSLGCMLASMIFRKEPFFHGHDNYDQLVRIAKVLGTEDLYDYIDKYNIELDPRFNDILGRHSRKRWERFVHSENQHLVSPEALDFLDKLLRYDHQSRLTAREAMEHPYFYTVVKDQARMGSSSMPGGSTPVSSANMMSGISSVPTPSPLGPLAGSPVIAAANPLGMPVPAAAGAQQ
Chain of CK2A1 (CK2α/β) (P67870 whole entry partner, species assumed): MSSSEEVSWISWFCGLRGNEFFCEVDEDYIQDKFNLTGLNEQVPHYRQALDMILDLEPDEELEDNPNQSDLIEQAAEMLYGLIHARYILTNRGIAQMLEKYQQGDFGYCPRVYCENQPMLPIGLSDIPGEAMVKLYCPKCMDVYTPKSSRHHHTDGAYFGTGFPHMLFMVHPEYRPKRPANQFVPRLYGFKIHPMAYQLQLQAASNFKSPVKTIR
Regarding `CS(=O)(=O)CC(=O)N1CCN(c2cc(C#N)cc(Nc3nc(NC4CC4)c4ncc(C#N)n4n3)c2Cl)CC1` [Example 89, 2-((2-chloro-5-cyano-3-(4-((methylsulfonyl)acetyl)-1-piperazinyl)phenyl)amino)-4-(cyclopropylamino) imidazo[2,1-f][1,2,4] triazine-7-carbonitrile], the IC50 is 2900 pM.

In the case of `N#Cc1cc(Nc2nc(NC3CC3)c3ncc(C#N)n3n2)c(Cl)c(N2CCN(C(=O)CCO)CC2)c1` [Example 90, 2-(2-chloro-5-cyano-3-(4-(3-hydroxypropanoyl)piperazin-1-yl)phenylamino)-4-(cyclopropylamino) imidazo[1,2-f][1,2,4] triazine-7-carbonitrile], the IC50 is 530 pM.

Turning to `CC(C)(O)CC(=O)N1CCN(c2cc(C#N)cc(Nc3nc(NC4CC4)c4ncc(C#N)n4n3)c2Cl)CC1` [Example 91], the IC50 turned out to be 490 pM.

Consider `N#Cc1cc(Nc2nc(NC3CC3)c3ncc(C#N)n3n2)c(Cl)c(N2CCN(C(=O)CCCS(N)(=O)=O)CC2)c1` [Example 93, 4-(4-(2-chloro-5-cyano-3-((7-cyano-4-(cyclopropylamino)imidazo[2,1-f][1,2,4]triazin-2-yl)amino)phenyl)-1-piperazinyl)-4-oxo-1-butanesulfonamide], for which the IC50 came out at 460 pM.

Take `N#Cc1cc(Nc2nc(NC3CC3)c3ncc(C#N)n3n2)c(Cl)c(N2CCN(C(=O)CC3CCOCC3)CC2)c1` [Example 95, 2-((2-chloro-5-cyano-3-(4-(tetrahydro-2H-pyran-4-ylacetyl)-1-piperazinyl)phenyl)amino)-4-(cyclopropylamino) imidazo[2,1-f][1,2,4] triazine-7-carbonitrile]: the IC50 is 920 pM.

Regarding `N#Cc1cc(Nc2nc(NC3CC3)c3ncc(C#N)n3n2)c(Cl)c(N2CCN(C(=O)CCCn3ccnc3)CC2)c1` [Example 96, 2-((2-chloro-5-cyano-3-(4-(4-(1H-imidazol-1-yl)butanoyl)-1-piperazinyl)phenyl)amino)-4-(cyclopropylamino) imidazo[2,1-f][1,2,4] triazine-7-carbonilrile], the IC50 came out at 630 pM.

In the case of `N#Cc1cc(Nc2nc(NC3CC3)c3ncc(C#N)n3n2)c(Cl)c(N2CCN(C(=O)Cn3ccnc3)CC2)c1` [Example 97, 2-((2-chloro-5-cyano-3-(4-(1H-imidazol-1-ylacetyl)-1-piperazinyl)phenyl)amino)-4-(cyclopropylamino) imidazo[2,1-f][1,2,4] triazine-7-carbonitrile], the IC50 turned out to be 530 pM.

`N#Cc1cc(Nc2nc(NC3CC3)c3ncc(C#N)n3n2)c(Cl)c(N2CCN(C(=O)CCn3ccnc3)CC2)c1` [Example 98]: the IC50 came out at 360 pM.

In the case of `N#Cc1cc(Nc2nc(NC3CC3)c3ncc(C#N)n3n2)c(Cl)c(N2CCN(C(=O)Cc3nnn[nH]3)CC2)c1` [Example 99, 2-((2-chloro-5-cyano-3-(4-(1H-tetrazol-5-ylacetyl)-1-piperazinyl)phenyl)amino)-4-(cyclopropylamino) imidazo[2,1-f][1,2,4] triazine-7-carbonitrile], the IC50 was found to be 320 pM.

For the compound `N#Cc1cc(Nc2nc(NC3CC3)c3ncc(C#N)n3n2)c(Cl)c(N2CCN(C(=O)CN3CCOCC3)CC2)c1` [Example 100, 2-((2-chloro-5-cyano-3-(4-(4-morpholinylacetyl)-1-piperazinyl)phenyl)amino)-4-(cyclopropylamino) imidazo[2,1-f][1,2,4] triazine-7-carbonitrile], the IC50 is 550 pM.

With `CCNc1nc(Nc2cc(C#N)cc(N3CCN(C4CN(C(=O)OC)C4)CC3)c2Cl)nn2c(C#N)cnc12` [Example 101, methyl 3-(4-(2-chloro-5-cyano-3-((7-cyano-4-(ethylamino)imidazo [2,1-f][1,2,4]triazin-2-yl)amino)phenyl)-1-piperazinyl)-1-azetidinecarboxylate], the IC50 amounted to 1270 pM.

In the case of `N#Cc1cc(Nc2nc(NC3CC3)c3ncc(C#N)n3n2)c(Cl)c(N2CCN([C@H]3C[C@H](O)C3)CC2)c1` [Example 102, (+/−) 2-((2-chloro-5-cyano-3-(4-(trans-3-hydroxycyclobutyl)-1-piperazinyl)phenyl)amino)-4-(cyclopropylamino) imidazo[2,1-f][1,2,4] triazine-7-carbonitrile], the IC50 was found to be 1100 pM.

Consider `N#Cc1cc(Nc2nc(NC3CC3)c3ncc(C#N)n3n2)c(Cl)c(N2CCN(C3(C#N)COC3)CC2)c1` [Example 104, 2-((2-chloro-5-cyano-3-(4-(3-cyano-3-oxetanyl)-1-piperazinyl)phenyl)amino)-4-(cyclopropylamino) imidazo[2,1-f][1,2,4] triazine-7-carbonitrile], for which the IC50 is 700 pM.

In the case of `N#Cc1cc(Nc2nc(NC3CC3)c3ncc(C#N)n3n2)c(Cl)c(N2CCN(C3COC3)CC2)c1` [Example 105, 2-(2-chloro-5-cyano-3-(4-(oxetan-3-yl)piperazin-1-yl)phenylamino)-4-(cyclopropylamino) imidazo[1,2-f][1,2,4] triazine-7-carbonitrile], the IC50 was 420 pM.

Take `N#Cc1cc(Nc2nc(NC3CC3)c3ncc(C#N)n3n2)c(Cl)c(N2CCN([C@H]3C[C@@H](C#N)C3)CC2)c1` [Example 106]: the IC50 came to 1230 pM.

On to `N#Cc1cc(Nc2nc(NC3CC3)c3ncc(C#N)n3n2)c(Cl)c(N2CCN([C@H]3C[C@H](C#N)C3)CC2)c1` [Example 107, 2-((2-chloro-5-cyano-3-(4-(trans-3-cyanocyclobutyl)-1-piperazinyl)phenyl)amino)-4-(cyclopropylamino) imidazo[2,1-f][1,2,4] triazine-7-carbonitrite], for which the IC50 came to 590 pM.

For `N#Cc1cc(Nc2nc(NC3CC3)c3ncc(C#N)n3n2)c(Cl)c(N2CCC(NC3COC3)CC2)c1` [Example 110, 2-((2-chloro-5-cyano-3-(4-(3-oxetanylamino)-1-piperidinyl)phenyl)amino)-4-(cyclopropylamino)imidazo [2,1-f][1,2,4]triazine-7-carbonitrile], the IC50 was 580 pM.

On to `CC1(O)CN(C2CCN(c3cc(C#N)cc(Nc4nc(NC5CC5)c5ncc(C#N)n5n4)c3Cl)CC2)C1` [Example 111, 2-(2-chloro-5-cyano-3-(4-(3-hydroxy-3-methylazetidin-1-yl)piperidin-1-yl)phenylamino)-4-(cyclopropylamino)imidazo [1,2-f][1,2,4]triazine-7-carbonitrile], for which the IC50 is 680 pM.

Consider `CCOC(=O)N1CCC(NC2CCN(c3cc(C#N)cc(Nc4nc(NC5CC5)c5ncc(C#N)n5n4)c3Cl)CC2)CC1` [Example 118, ethyl 4-((1-(2-chloro-5-cyano-3-((7-cyano-4-(cyclopropylamino)imidazo [2,1-f][1,2,4]triazin-2-yl)amino)phenyl)-4-piperidinyl)amino)-1-piperidinecarboxylate], for which the IC50 was found to be 840 pM.

As to `CN1C(C)(C)CC(NC2CCN(c3cc(C#N)cc(Nc4nc(NC5CC5)c5ncc(C#N)n5n4)c3Cl)CC2)CC1(C)C` [Example 124, 2-((2-chloro-5-cyano-3-(4-((1,2,2,6,6-pentamethyl-4-piperidinyl)amino)-1-piperidinyl)phenyl)amino)-4-(cyclopropylamino)imidazo [2,1-f][1,2,4]triazine-7-carbonitrile], the IC50 is 1010 pM.

For `N#Cc1cc(Nc2nc(NC3CC3)c3ncc(C#N)n3n2)c(Cl)c(N2CCC(NC3CCOCC3)CC2)c1` [Example 125, 2-((2-chloro-5-cyano-3-(4-(tetrahydro-2H-pyran-4-ylamino)-1-piperidinyl)phenyl)amino)-4-(cyclopropylamino)imidazo [2,1-f][1,2,4]triazine-7-carbonitrile], the IC50 was 750 pM.

As to `N#Cc1cc(Nc2nc(NC3CC3)c3ncc(C#N)n3n2)c(Cl)c(N2CCC(NC3CS(=O)(=O)C3)CC2)c1` [Example 129, 2-((2-chloro-5-cyano-3-(4-((1,1-dioxido-3-thietanyl)amino)-1-piperidinyl)phenyl)amino)-4-(cyclopropylamino)imidazo [2,1-f][1,2,4]triazine-7-carbonitrile], the IC50 came out at 5130 pM.

`N#Cc1cc(Nc2nc(NC3CC3)c3ncc(C#N)n3n2)c(Cl)c(N2CCC(NCC3CC3)CC2)c1` [Example 136, 2-((2-chloro-5-cyano-3-(4-((cyclopropylmethyl)amino)-1-piperidinyl)phenyl)amino)-4-(cyclopropylamino)imidazo [2,1-f][1,2,4]triazine-7-carbonitrile]: the IC50 is 22000 pM.

As to `CC(C)(O)[C@H](F)CNC1CCN(c2cc(C#N)cc(Nc3nc(NC4CC4)c4ncc(C#N)n4n3)c2Cl)CC1` [Example 137, 2-((2-chloro-5-cyano-3-(4-(((2R)-2-fluoro-3-hydroxy-3-methylbutyl)amino)-1-piperidinyI)phenyl)amino)-4-(cyclopropylamino)imidazo [2,1-f][1,2,4]triazine-7-carbonitrile], the IC50 came out at 3060 pM.

Consider `Cc1cc(CNC2CCN(c3cc(C#N)cc(Nc4nc(NC5CC5)c5ncc(C#N)n5n4)c3Cl)CC2)on1` [Example 140, 2-(2-chloro-5-cyano-3-(4-((3-methylisoxazol-5-yl)methylamino)piperidin-1-yl)phenylamino)-4-(cyclopropylamino)imidazo [1,2-f][1,2,4]triazine-7-carbonitrile], for which the IC50 turned out to be 2680 pM.

`N#CCNC1CCN(c2cc(C#N)cc(Nc3nc(NC4CC4)c4ncc(C#N)n4n3)c2Cl)CC1` [Example 141, 2-((2-chloro-5-cyano-3-(4-((cyanomethyl)amino)-1-piperidinyl)phenyl)amino)-4-(cyclopropylamino)imidazo [2,1-f][1,2,4]triazine-7-carbonitrile]: the IC50 was 670 pM.

Consider `CC(C)(O)CNC1CCN(c2cc(C#N)cc(Nc3nc(NC4CC4)c4ncc(C#N)n4n3)c2Cl)CC1` [Example 143, 2-((2-chloro-5-cyano-3-(4-((2-hydroxy-2-methylpropyl)amino)-1-piperidinyl)phenyl)amino)-4-(cyclopropylamino)imidazo [2,1-f][1,2,4]triazine-7-carbonitrile], for which the IC50 came out at 780 pM.

As to `COC[C@H](O)CNC1CCN(c2cc(C#N)cc(Nc3nc(NC4CC4)c4ncc(C#N)n4n3)c2Cl)CC1` [Example 145, 2-((2-chloro-5-cyano-3-(4-(((2R)-2-hydroxy-3-methoxypropyl)amino)-1-piperidinyl)phenyl)amino)-4-(cyclopropylamino)imidazo [2,1-f][1,2,4]triazine-7-carbonitrile], the IC50 came out at 5480 pM.
